Test results taken from US20120245135A1, “Gallium Complexes, Pharmaceutical Compositions And Methods Of Use” (Genta Incorporated, priority 2011, published 2012).

Test: Oral bioavailability of gallium complexes in dogs (plasma gallium by ICP-MS)
Details: for blood levels of gallium reached (peak blood concentration of gallium) / maximum blood concentration of gallium achieved: 2.5 mg/kg; for blood levels of gallium reached by oral controls: oral positive control (all three dogs) and oral negative control (highest value, one animal), Beagle dogs
Procedure: Pharmacokinetics, oral bioavailability and bioequivalency of gallium-ligand complexes according to the invention were determined in dogs following a single oral gavage administration of the compounds as a suspension/solution in water in fasted male Beagle dogs at 2.5 mg/kg dog body weight or following administration of a single total dose of 30 mg in a capsule formulation (for histidine and carnosine only). The following complexes were selected for testing: gallium picolinate, gallium kojate, gallium (+)-mandalate, gallium (−)-mandalate, gallium tryptophanate, gallium acetyl piperidinate, gallium prolinate both neutral and ionic; and the capsules prepared from histidine and carnosine. Each compound was studied in groups of three fasted animals. Nine serial blood samples were collected from each animal by venipuncture of a jugular vein at the following time points post-dose: 0 (predose), 0.25, 0.5, 0.75, 1, 2, 4, 8, and 16 hours post-dose. Blood samples were collected into chilled tubes containing heparin as the anticoagulant.
Oral bioavailability of the test gallium complex was evaluated in each of the three animals in each test group.

[1] = single oral gavage, suspension/solution in water, fasted male Beagle dogs

Structure (SMILES): O=C1[O][Ga-3]23([O]C(=O)[C@H](c4ccccc4)[OH+]2)([O]C(=O)[C@H](c2ccccc2)[OH+]3)[OH+]C1c1ccccc1 (stereo partly drawn) [gallium (+)-mandalate]
- blood levels of gallium reached (peak blood concentration of gallium) (male, Beagle, dog, in vivo, po): at least 1,000 ng/ml

Structure (SMILES): O=C1[O][Ga-3]23([O]C(=O)[C@@H](c4ccccc4)[OH+]2)([O]C(=O)[C@@H](c2ccccc2)[OH+]3)[OH+]C1c1ccccc1 (stereo partly drawn) [gallium (−)-mandalate]
- blood levels of gallium reached (peak blood concentration of gallium) (male, Beagle, dog, in vivo, po): at least 1,000 ng/ml

Structure (SMILES): CC1=[O+][Ga-3]23([O]C(=O)C4CCCCN14)([O]C(=O)C1CCCCN1C(C)=[O+]2)[O]C(=O)C1CCCCN1C(C)=[O+]3 (stereo not drawn) [gallium acetyl piperidinate complex]
- maximum blood concentration of gallium achieved (male, Beagle, dog, in vivo, po): about 200 ng/ml

Structure (SMILES): OCC1=CC2=[O+][Ga-3]34([O]C2=CO1)([O]C1=COC(CO)=CC1=[O+]3)[O]C1=COC(CO)=CC1=[O+]4 [gallium kojate]
- blood levels of gallium reached (peak blood concentration of gallium) (male, Beagle, dog, in vivo, po): at least 1,000 ng/ml

Structure (SMILES): Cc1occc(=O)c1[O-].Cc1occc(=O)c1[O-].Cc1occc(=O)c1[O-].[Ga+3] [gallium maltolate, reference compound]
- blood levels of gallium reached by oral controls: ≥ 1,000 ng/ml

Structure (SMILES): O=[N+]([O-])[O-].O=[N+]([O-])[O-].O=[N+]([O-])[O-].[Ga+3] [gallium nitrate, reference compound]
- blood levels of gallium reached by oral controls: ≤ 700 ng/mL

Structure (SMILES): O=C1[O][Ga-3]23([O]C(=O)c4cccc[n+]42)([O]C(=O)c2cccc[n+]23)[n+]2ccccc21 [gallium picolinate]
- blood levels of gallium reached (peak blood concentration of gallium) (male, Beagle, dog, in vivo, po): at least 1,000 ng/ml

Structure (SMILES): O=C([O-])C1CCCN1.O=C([O-])C1CCCN1.O=C([O-])C1CCCN1.[Ga+3] (stereo not drawn) [gallium prolinate neutral complex]
- maximum blood concentration of gallium achieved [1]: about 300 ng/ml

Structure (SMILES): N[C@@H](Cc1c[nH]c2ccccc12)C(=O)[O-].N[C@@H](Cc1c[nH]c2ccccc12)C(=O)[O-].N[C@@H](Cc1c[nH]c2ccccc12)C(=O)[O-].[Ga+3] [gallium tryptophanate complex]
- maximum blood concentration of gallium achieved [1]: about 500 ng/ml
